Source: US11834460B2, “Imide-based modulators of proteolysis and associated methods of use” (YALE UNIVERSITY, priority 2018, dated 2023)
Each block holds one molecule with its values, some of them ahead of it. Where a SMILES comes first, the peptide text is derived from it. The star is where a group is joined. Cbz = O=C(OCc1ccccc1)*

Tests used:
BRD4 = target: T1, BRD4 (Homo sapiens, UniProt O60885); experiment: Western blot analysis of BRD4 in BL cell lines; type: cell-based; settings: overnight; for effect of proteasome inhibitor on A825-induced BRD4 degradation: inhibitor 5 μM with A825 10 nM or 100 nM, NAMALWA cells
T1 construct: endogenous in cells; host or cells: NAMALWA, Ramos, CA-46, DAUDI
Procedure: (§1) Cultured cells were collected in lysis buffer containing 40 mM HEPES (pH 7.4), 140 mM NaCl, 2.5 mM EDTA, 1% NP-40, 0.1% SDS and protease inhibitor cocktail. After 10 minutes of centrifugation (14000 rpm), supernatant was collected for protein concentration determination by BCA method and subjected for immunoblotting by standard protocol. Western blot results were visualized using Bio-Rad Clarity ECL Western Blotting Substrate on Bio-Rad ChemiDoc™ MP imaging system.
A separate set of cells were treated in the same manner, except that DMSO was used in place of the inhibitor. […] Following treatment, cell lysates were collected and analyzed by immunoblot for BRD4 and Actin.
Specifically, NAMALWA and Ramos cells were treated with 300 nM of each inhibitor for 0 hr, 0.5 hr, 1.0 hr, 2.0 hr, 4.0 hr, 7.0 hr, 24 hr, and 48.0 hr. Following treatment, cell lysates were collected and analyzed by immunoblot for BRD4 and Actin.
(§2) Following treatment, cell lysates were collected and analyzed by immunoblot for BRD4 and Actin.
as §2, §2, §2
(§3) Cells were re-seeded in fresh medium and incubated without any compound for 0 hr, 2.0 hr, 4.0 hr, 6.0 hr, and 24.0 hr. In a parallel control experiment, cells were treated in the same manner, except DMSO was used in place of inhibitor. Lysates were collected and analyzed by immunoblot for BRD4, c-Myc, and Actin.

CRBN = CRBN (Homo sapiens, UniProt Q96SW2); experiment: Surface plasmon resonance with immobilized His-tagged cereblon; settings: SPR; average of at least 2 experiments; N.B - no binding observed
Procedure: With unprecedented access to novel analogues of ImiDs, the structure-activity relationships with respect to Cereblon binding and the degradation of Aiolos (IKZF3) and CK1αwe were explored. To assess binding of ImiD analogues to Cereblon directly, an SPR assay with His-tagged Cereblon immobilized was employed. Dose-response curves were measured for each analogue and Kd values calculated.
Surface Plasmon Resonance
The surface plasmon resonance (SPR) experiments were conducted on a S200 Biacore (GE Healthcare). His-tagged cereblon protein was immobilized on a carboxymethylated dextran surface with nitriloacetic acid (NTA), taking advantage of NTA/Ni2+ chelation. The prepared surface equilibrated overnight in running buffer (10 mM HEPES buffer @ pH 7.4, 150 mM NaCl, 0.4 mg/mL BSA, 0.005% P20, 2% DMSO).
All compounds were prepared in 100% DMSO stock plates with a top concentration of 5 mM in a 3× serial dilution. Compounds were transferred from the stock plate to the assay plate and diluted into running buffer containing no DMSO.
Data analysis was performed in S200 Bia-evaluation software (GE Healthcare). Blanks were subtracted and data was corrected for DMSO using a standard DMSO curve.

PARP = PARP cleavage immunoblot in BL cells; type: cell-based; settings: 48 hours; A825 0.1 uM, JQ1 and OTX15 up to 10.0 μM; Ramos cells
Procedure: as §1
Lysates were collected and analyzed by immunoblot for PARP cleavage with actin as loading control.

c-Myc = experiment: Western blot analysis of c-Myc in BL cell lines; type: cell-based; settings: NAMALWA cells; for c-Myc protein level (immunoblot): overnight
Procedure: as §1
A separate set of cells were treated in the same manner, except that DMSO was used in place of the inhibitor. Following treatment, cell lysates were collected and analyzed by immunoblot for c-Myc and Actin.
Cells were re-seeded and incubated without inhibitor for 0 hr, 0.5 hr, 1.0 hr, 2.0 hr, 3.0 hr, 4.0 hr, and 6.0 hr. Cell lysates were then collected at the various time points and analyzed by immunoblot for c-Myc and Actin. In a parallel control experiment, NAMALWA cells were treated in the same manner, except DMSO was used in place of JQ1.
After treatment, the cells were either lysed (to evaluate the suppression of c-Myc by the inhibitors) or washed to remove the inhibitor, re-seeded, and incubated without inhibitor for 4.0 hours (to evaluate the reversibility of c-Myc suppression). Cell lysates were collected and analyzed by immunoblot for c-Myc and Actin.
Following treatment, cell lysates were collected and analyzed by immunoblot for BRD4, c-Myc and Actin.
as §3

[1] = test system: BL cell lines (NAMALWA, Ramos, CA-46, Daudi); experiment: Proliferation assay (CellTiter-Glo) in BL cell lines; type: cell-based; settings: pomalidomide alone up to 10 μM; 72 hours
Procedure: To assess the effect of the inhibitors on proliferation, cells (50,000/100 μl) were seeded in 96-well tissue culture plates followed by addition of compound at the indicated concentration. After 72 hours, 100 μL per well of reconstituted CellTiter-Glo (CTG) reagent (#G7572 from Promega) was added and read on Cytation 3 imaging reader from BioTek. Relative cell growth was determined by comparing assay readings of treated cells with control DMSO treated cells.
Specifically, NAMALWA, Ramos, CA-46, and Daudi cell lines were seeded at 50,000 cells/100 μl in 96-well plates. […] Following treatment, the relative proliferation of the samples was determined by CTG assay 72 hours following treatment.
Cells were re-seeded in fresh medium and incubated without any compound for 0 hr, 24.0 hr, and 48.0 hr. In a parallel control experiment, cells were treated in the same manner, except DMSO was used in place of inhibitor. Following treatment, the relative proliferation of the samples was determined by CTG assay.
In a parallel control experiment, cells were treated in the same manner, except DMSO was used in place of inhibitor. Following treatment, the relative proliferation of the samples was determined by CTG assay.
In a parallel experiment, cells were treated in the same manner, except DMSO was used in place of pomalidomide.

androgen receptor (AR) = target: T2, androgen receptor (AR) (Homo sapiens, UniProt P10275); experiment: AR ELISA protocol, degradation in VCaP cells; type: cell-based; set-up: Dmax: dose or concentration left out as unconfirmed; settings: 16 h
T2 construct: detects endogenous levels of total androgen receptor protein; endogenous in cells; host or cells: VCaP
T2 sequence (P10275 1-920): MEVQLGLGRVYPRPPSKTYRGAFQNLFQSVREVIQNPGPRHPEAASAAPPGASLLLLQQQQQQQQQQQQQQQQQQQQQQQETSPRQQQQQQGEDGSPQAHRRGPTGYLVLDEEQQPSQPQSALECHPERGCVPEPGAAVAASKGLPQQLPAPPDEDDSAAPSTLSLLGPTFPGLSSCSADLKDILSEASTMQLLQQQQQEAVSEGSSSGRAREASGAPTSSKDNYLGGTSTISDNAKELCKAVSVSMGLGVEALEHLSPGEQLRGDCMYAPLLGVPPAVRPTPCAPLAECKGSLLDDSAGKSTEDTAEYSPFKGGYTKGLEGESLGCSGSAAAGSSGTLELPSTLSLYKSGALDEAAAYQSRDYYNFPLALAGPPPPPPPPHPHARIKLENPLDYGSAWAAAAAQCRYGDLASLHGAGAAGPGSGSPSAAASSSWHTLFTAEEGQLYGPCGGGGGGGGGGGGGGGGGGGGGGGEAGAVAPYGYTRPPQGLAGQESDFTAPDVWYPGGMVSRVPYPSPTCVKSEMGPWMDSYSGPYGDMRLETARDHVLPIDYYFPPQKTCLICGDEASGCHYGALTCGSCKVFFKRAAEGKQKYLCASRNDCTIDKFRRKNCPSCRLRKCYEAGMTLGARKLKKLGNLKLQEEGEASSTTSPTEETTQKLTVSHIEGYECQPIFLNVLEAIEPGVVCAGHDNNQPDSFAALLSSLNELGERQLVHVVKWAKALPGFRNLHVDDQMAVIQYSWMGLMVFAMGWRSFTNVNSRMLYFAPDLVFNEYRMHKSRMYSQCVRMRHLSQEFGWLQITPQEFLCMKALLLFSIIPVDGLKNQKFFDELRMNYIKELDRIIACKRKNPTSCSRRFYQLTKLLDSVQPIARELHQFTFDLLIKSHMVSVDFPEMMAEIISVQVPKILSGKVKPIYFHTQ
Procedure: In each bioassay, cells were treated with varying amounts of compounds encompassed by the present disclosure, as shown in Table 1. The degradation of the following proteins were evaluated in this study: TANK-binding kinase 1 (TBK1), estrogen receptor α (ERα), bromodomain-containing protein 4 (BRD4), androgen receptor (AR), and c-Myc.
VCaP cells were purchased from ATCC and cultured in Dulbecco's Modified Eagle's Medium (ATCC), supplemented with 10% FBS (ATCC) and Penicillin/Streptomycin (Life Technologies). DMSO control and compound treatments (0.0001 μM-1 μM) were performed in 96-well plates for 16 h. Cells were harvested, and lysed with Cell Lysis Buffer (Catalog #9803) (20 mM Tris-HCL (pH 7.5), 150 mM NaCl, 1 mM Na2EDTA, 1 mM EGTA, 1% Triton, 2.5 mM sodium pyrophosphate, 1 mM B-glycerophosphate, 1 mM Na3VO4, 1 ug/ml leupeptin. Lysates were clarified at 16,000 g for 10 minutes, and loaded into the PathScan AR ELISA (Cell Signaling Catalog #12850). The PathScan® Total Androgen Receptor Sandwich ELISA Kit is a solid phase sandwich enzyme-linked immunosorbent assay (ELISA) that detects endogenous levels of total androgen receptor protein. An Androgen Receptor Rabbit mAb has been coated onto the microwells. After incubation with cell lysates, androgen receptor protein is captured by the coated antibody. Following extensive washing, an Androgen Receptor Mouse Detection mAb is added to detect the captured androgen receptor protein. Anti-mouse IgG, HRP-linked Antibody is then used to recognize the bound detection antibody. HRP substrate, TMB, is added to develop color. The magnitude of absorbance for the developed color is proportional to the quantity of total androgen receptor protein. Antibodies in kit are custom formulations specific to kit.

CRBN, sequence (Q96SW2 whole entry): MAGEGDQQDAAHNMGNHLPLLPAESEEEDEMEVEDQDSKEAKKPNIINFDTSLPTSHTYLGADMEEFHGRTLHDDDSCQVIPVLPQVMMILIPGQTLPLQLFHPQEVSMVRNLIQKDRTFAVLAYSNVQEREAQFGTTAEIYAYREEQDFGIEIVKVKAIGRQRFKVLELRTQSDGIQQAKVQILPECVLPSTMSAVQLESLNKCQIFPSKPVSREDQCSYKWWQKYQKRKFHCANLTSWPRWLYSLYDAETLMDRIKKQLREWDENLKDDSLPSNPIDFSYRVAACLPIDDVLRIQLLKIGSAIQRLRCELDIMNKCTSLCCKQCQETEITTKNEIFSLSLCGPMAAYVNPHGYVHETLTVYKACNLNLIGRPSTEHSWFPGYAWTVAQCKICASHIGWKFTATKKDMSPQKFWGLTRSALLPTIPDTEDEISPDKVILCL

Compound: CC(C)C[C@@H](C=O)NC(=O)[C@H](CC(C)C)NC(=O)[C@H](CC(C)C)NC(=O)OCc1ccccc1 [MG132] (Cbz-Leu-Leu-Leu-aldehyde)
- effect of proteasome inhibitor on A825-induced BRD4 degradation (BRD4): completely prevented BRD4 degradation

Compound: Cc1sc2c(c1C)C(c1ccc(Cl)cc1)=N[C@@H](CC(=O)Nc1ccc(O)cc1)c1nnc(C)n1-2 [OTX-15]
- apoptosis by PARP cleavage (PARP): significantly higher dose
- c-Myc protein level (immunoblot) (c-Myc; 100 nM to 1000 nM): significant suppression
- c-Myc protein level (immunoblot) (c-Myc; up to 3000 nM): neither JQ1 nor OTX-15 was able to completely suppress c-Myc expression

Compound: Cc1sc2c(c1C)C(c1ccc(Cl)cc1)=N[C@@H](CC(=O)OC(C)(C)C)c1nnc(C)n1-2 [JQ1]
- apoptosis by PARP cleavage (PARP): significantly higher dose
- c-Myc protein level (immunoblot) (c-Myc; 100 nM to 1000 nM): significant suppression
- time for c-Myc protein to return to control level after inhibitor removal (c-Myc; 1000 nM 24 h, washout): ≤ 3.0 h
- c-Myc protein level (immunoblot) (c-Myc; up to 3000 nM): neither JQ1 nor OTX-15 was able to completely suppress c-Myc expression

Compound: CC1(C)C(=O)N(c2ccc(C#N)c(C(F)(F)F)c2)C(=S)N1c1ccc(OCCCOCCOCCOCCNc2cccc3c2C(=O)N(C2(C)CCC(=O)NC2=O)C3=O)cc1 (stereo not drawn) [Compound 12, 4-(4,4-dimethyl-3-(4-((1-(2-(3-methyl-2,6-dioxopiperidin-3-yl)-1,3-dioxo-2,3-dihydro-1H-isoindol-4-yl)-4,7,10-trioxa-1-azatridecan-13-yl)oxy)phenyl)-5-oxo-2-sulfanylidene-imidazolidin-1-yl)-2-(trifluoromethyl) benzonitrile]
- Dmax (androgen receptor (AR)): 10 to 30%

Further lines, with some results ahead:

- Kd (CRBN): 111 ± 6 nM
Compound: O=C1CCC(N2C(=O)c3cccc4cccc(c34)C2=O)C(=O)N1 (stereo not drawn) [Compound 12]

- BRD4 protein level (immunoblot) (BRD4; pomalidomide 10 μM alone, NAMALWA and Ramos cells): not affected
Compound: Nc1cccc2c1C(=O)N(C1CCC(=O)NC1=O)C2=O (stereo not drawn) [Pomalidomide, pomalidomide, reference compound]
- effect on BL cell proliferation [1]: did not result in a significant effect on the proliferation

- effect of proteasome inhibitor on A825-induced BRD4 degradation (BRD4): completely prevented BRD4 degradation
Compound: CC(C)C[C@H](NC(=O)[C@H](CCc1ccccc1)NC(=O)CN1CCOCC1)C(=O)N[C@@H](Cc1ccccc1)C(=O)N[C@@H](CC(C)C)C(=O)[C@@]1(C)CO1 [Carfizomib]

- Kd (CRBN): > 11000 nM
Compound: O=C1CCC(N2C(=O)c3ccc([N+](=O)[O-])cc3C2=O)C(=O)N1 (stereo not drawn) [Compound 16]

- Kd (CRBN): 221 ± 52 nM
Compound: CC(C)(C)c1ccc2c(c1)C(=O)N(C1CCC(=O)NC1=O)C2=O (stereo not drawn) [Compound 11]
